# Data from patent publication US11357850B2, “Methods for treating breast cancer using INOS-inhibitory compositions” (The Methodist Hospital, priority 2014, dated 2022).
# Tests used:
# MDA-MB-231 xenografts [1] = test: Lung metastases-preventing study, MDA-MB-231 L/G xenografts; type: in vivo, mice
# Protocol: For the lung metastases-preventing study, MDA-MB-231 L/G cells were implanted as described above. The mice were randomized and treatments started 48 hrs after cell injection (n=5/group): 1) Vehicle (saline, i.p.), 2) L-NAME (80 mg/kg, i.p., daily for 35 days). Previous injection of luciferin, lungs were removed and washed in cold DMEM+10% FBS+1% antibiotics/antimycotic. Then, lungs were incubated in cold DMEM media containing 50 μM luciferin for 10 min. This protocol avoids the time lapse between lung extraction and exposure to luciferin. Fluorescent cancer cells were detected with an IVIS-200 in vivo imaging system (Perkin Elmer, Inc., Santa Clara, Calif., USA).
# (§1) Self-renewal and tumor-initiating capacity was determined by MSFE and limiting-dilution assays, respectively, in single cells isolated from tumor tissue. Briefly, breast tumor tissue was minced, digested in DMEM:F12 medium with 100 U/mL of collagenase type 3 (Worthington, Lakewood, N.J., USA) and 0.8 U/mL of dispase (Gibco, Carlsbad, Calif., USA) at 37° C. for 45 min. MSFE was assayed in isolated single cells as stated above. The limiting dilution assay (LDA) was performed injecting either […] isolated cells from tumor tissue in the mammary fat pad of SCID Beige mice (n=12/group). Flow cytometric analysis of CD44^+/CD24^−/low cell population was assayed using published methods.
# iNOS inhibition reduces tumor growth, tumor initiating capacity and prevents lung metastases in mouse models of triple negative breast cancer. Based on the in vitro data, the inventor next investigated whether iNOS inhibition was able to prevent tumor initiation and metastasis of breast tumor cells in a mouse model of lung metastases. Daily i.p. injections of 80 mg/kg L-NAME were given to MDA-MB-231 xenograft-bearing mice for 35 days. […] Additionally, tumor-initiating capacity of CSC was assessed with a limiting dilution assay (LDA) by injecting single cells isolated from tumor tissue (5×10^5 or 1×10^5 cells) in the right mammary fat pad. All the animals of vehicle group (n=5) developed tumors whereas treatment with L-NAME yielded 3/5 tumors at 1.5 weeks with 5×10^5 cells.
# The inventor then examined whether iNOS inhibition was able to suppress metastasis to lungs in TNBC xenografts model. The luciferase/GFP-based MDA-MB-231 (MDA-MB-231 L/G) xenograft mouse model mimics the metastatic process to the lungs in patients. In this model of lung metastasis, cells metastasize from the primary tumor to lungs in ˜35 days after implantation. MDA-MB-231 L/G cells were injected in the right mammary fat pad of SCID mice and 80 mg/kg L-NAME was given daily for 35 days.
# EMT-6 cells = details: mouse, in vivo; cited from earlier work
# C3L5 and C10 = details: cited from earlier work
# MDA-MB-231 [2] = test: Cell proliferation assay (WST-1), iNOS inhibitors; type: cell-based, human; details: highest concentration (4 mM), 96 hrs
# Protocol: (§2) Cell Culture. Mesenchymal-like triple negative breast cancer cell lines, MDA-MB-231 and SUM159, were purchased from American Type Culture Collection and Asterand, respectively. […] Mammosphere forming efficiency (MSFE), cell proliferation and migration assays are detailed below. Cell culture and mammosphere forming efficiency assay. […] For mammosphere-forming efficiency (MSFE) assay, 2,000 (SUM159) and 5,000 (MDA-MB-231) cells/well were cultured in 0.5% methylcellulose (MethoCult H4100, StemCell Technologies) and MammoCult basal medium supplemented with 10% MammoCult proliferation supplement, 4 μg/mL heparin and 0.48 μg/mL hydrocortisone (StemCell Technologies, Vancouver, BC, CANADA). […] Primary MSFE was evaluated dividing mammosphere number by cell number. After trypsinization of primary MS, single cells were grown in 0.5% methylcellulose and mammosphere medium (as described above) in absence of treatment. Secondary MS were scanned, counted and secondary MSFE were assessed. For the mouse model of lung metastasis, MDA-MB-231 cells were transfected with a luciferase/GFP-based dual-reporter plasmid and stable clones (MDA-MB-231 L/G) selected with 1 mg/mL blasticidin (InvivoGen, San Diego, Calif., USA). […] Proliferation rate was determined by adding premixed WST-1 reagent (Clontech). After incubation at 37° C. for 3 hrs, absorbance was read at 450 nm (reference wavelength 690 nm).
# SUM159 [3] = test: Cell proliferation assay (WST-1), iNOS inhibitors; type: cell-based, human; details: highest concentration (4 mM), 96 hrs
# Protocol: as §2
# MDA-MB-231 [4] = test: Cell migration, wound healing assay; type: cell-based, human; details: 96 hrs treatment, wound healing 12 hrs
# Protocol: (§3) FIG. 18A and FIG. 18B show the migration of MDA-MB-231 and SUM159 cells was assessed by “wound healing” assay. Briefly, 3×10^5 cells were plated in a 6-well plate until confluence in growth medium. […] A “wound” was then created in the cell monolayer. Images were taken at 0 and 12 hrs. Wound-healing capacity was determined with the software Image J. Data were replicated in three independent experiments. Results were normalized to vehicle;
# (§4) Cell migration capacity. Cell migration was determined with a “wound healing assay.” Briefly, 3×10^5 cells/well were grown in 6-well plates until confluence. […] To avoid an impact on cell proliferation, low serum medium was changed by regular growth medium in presence of inhibitors for 24 hrs (96 hrs total). A “wound” was then created in the cell monolayer with a 100-4, pipette tip. Images were taken at 0 hrs, and cells were allowed to heal the wound for 12 hrs. Wound-healing capacity was determined with the software Image J. Data were replicated in three independent experiments.
# SUM159 [5] = test: Cell migration, wound healing assay; type: cell-based, human; details: 96 hrs treatment, wound healing 12 hrs
# Protocol: as §3, §4
# SUM159 cells = test: Nitric oxide production (nitrate/nitrite fluorometric assay); type: cell-based, human; details: nitrate+nitrite in supernatant, up to 24 hrs
# From the text: Nitric oxide production in SUM159 cells. […] Aliquots of cell culture supernatant were taken at 0, 0.5, 2, 6 and 24 hrs for nitrate+nitrite (total nitric oxide) production with the nitrate/nitrite fluorometric assay kit (Cayman Chemical) following manufacturer's instructions.
# MDA-MB-468 = test: PD-L1 expression in TNBC cell line; type: cell-based, human
# HCC-70 = test: PD-L1 expression in TNBC cell line; type: cell-based, human
# SUM159 xenografts = SUM159 xenografts treated with L-NMMA, docetaxel, combination; type: in vivo, mice
# Protocol: (§5) Animal Studies. Female SCID Beige mice (4-5 weeks old) (Harlan Laboratories, Houston, Tex., USA) were housed under standard laboratory conditions (22° C.; 12 hrs/12 hrs light/dark cycle and free access to food and water). Either MDA-MB-231 or SUM159 cells (3×10^6) were injected in the right mammary fat pad. Once the tumors reached 150-200 mm^3, the mice were randomized into different groups as follows (n=10/group): 1) Vehicle (saline, i.p.), 2) L-NMMA (either 80 mg/kg or 200 mg/kg, i.p., daily), 3) Docetaxel (20 mg/kg), 4) Combo (L-NMMA and docetaxel).
# as §1
# To answer this question, daily injections of 80 mg/kg L-NMMA were first given to SUM159 xenograft-bearing mice alone or in combination with docetaxel (20 mg/kg). […] The inventor next analyzed the impact on CSC self-renewal by the MSFE assay.
# MDA-MB-231 xenografts [6] = test: MDA-MB-231 xenografts treated with L-NMMA, docetaxel, combination; type: in vivo, mice
# Protocol: as §5, §1
# The role of L-NMMA was then investigated, either alone or in combination with docetaxel in a different TNBC mouse model. Docetaxel (20 mg/kg at days 0 and 21) and 200 mg/kg L-NMMA (daily) were given to MDA-MB-231 xenograft-bearing mice for 31 days.
# [7] = LC-MS/MS quantification of methylarginine in plasma and tumor tissue; type: in vivo, mice
# Protocol: Metabolite profiling by liquid chromatography-tandem mass spectrometry (LC-MS/MS). MDA-MB-231 and SUM159 xenograft tissue from animal studies (L-NMMA given daily) as well as plasma samples were prepared as previously described. L-NMMA (200 mg/kg) was orally administered by gavage to female SCID Beige mice (n=5). Blood was drawn before (baseline, 0 hrs) and after L-NMMA administration (0.5, 2, 12, 24 hrs). LC-MS/MS platform used for metabolite profiling was previously described. Ratiometric quantification of methylarginine (L-NMMA) and citrulline was determined as ion abundance levels in plasma and tumor tissue.
# iNOS = iNOS (Homo sapiens, UniProt P35228); test: LC-MS/MS quantification of citrulline in xenograft tissue; type: in vivo, mice; details: SUM159 xenograft tissue, 24 hrs after completion of treatment
# Protocol: Ratiometric quantification of citrulline SUM159 xenograft tissue LC-MS/MS (Student's t-test). […] Results were normalized to vehicle. Data are presented as mean±SEM. ****p<0.0001, ***p<0.001, **p<0.01, *p<0.05; one-way ANOVA and Bonferroni's post-hoc test;
# Metabolite profiling by liquid chromatography-tandem mass spectrometry (LC-MS/MS). MDA-MB-231 and SUM159 xenograft tissue from animal studies (L-NMMA given daily) as well as plasma samples were prepared as previously described. […] LC-MS/MS platform used for metabolite profiling was previously described. Ratiometric quantification of methylarginine (L-NMMA) and citrulline was determined as ion abundance levels in plasma and tumor tissue.
# [8] = cited from earlier work
# [9] = cited from earlier work; remark: listed apart in the source
smiles,measurement,setting,value
"COC(=O)[C@@H](N)CCCNC(=N)N[N+](=O)[O-] [L-NAME, N^5-[imino(nitroamino)methyl]-L-ornithine methyl ester]",ex vivo imaging of lungs in presence of luciferin (lung metastasis),MDA-MB-231 xenografts [1]; 80 mg/kg daily for 35 days,higher fluorescence in vehicle group compared to L-NAME group
same,MSFE of primary MS of cells isolated from tumor tissue,MDA-MB-231 xenografts [1]; 80 mg/kg i.p. daily for 35 days,significantly reduced
same,tumor growth,"MDA-MB-231 xenografts [1]; 80 mg/kg i.p. daily for 35 days, p=0.001",significantly reduced tumor growth
same,secondary MSFE of cells isolated from tumor tissue,"MDA-MB-231 xenografts [1]; 80 mg/kg i.p. daily, compared to vehicle group",diminished but not significantly
same,"limiting dilution assay, tumors developed","MDA-MB-231 xenografts [1]; 1.5 weeks with 5×10^5 cells, vehicle all animals (n=5)",3/5
same,"limiting dilution assay, tumors developed",MDA-MB-231 xenografts [1]; 2.5 weeks with 1×10^5 cells,0/5
same,tumor growth and lung metastasis,EMT-6 cells,decrease tumor growth and lung metastasis
same,invasive and migrating potential,C3L5 and C10,inhibited the invasive and migrating potential
"[H]/N=C(/NC)NCCC[C@H](N)C(=O)O [L-NMMA, N^G-monomethyl-L-arginine]",proliferation,MDA-MB-231 [2],anti-proliferative activity
same,proliferation,SUM159 [3],anti-proliferative activity
same,migration,MDA-MB-231 [4]; micromolar range,not consistent and less effective
same,migration,MDA-MB-231 [4]; millimolar range,reduction in migration capacity
same,migration,SUM159 [5]; micromolar range,not consistent and less effective
same,migration,SUM159 [5]; millimolar range,reduction in migration capacity
same,total NO production,SUM159 cells,decrease in total NO production
same,PD-L1 expression,MDA-MB-468,increase the PD-L1 expression
same,PD-L1 expression,HCC-70,increase the PD-L1 expression
same,"limiting dilution assay, tumors","SUM159 xenografts; 7 weeks with 5×10^4 cells, vehicle 12/12",4/12
same,tumor growth,"SUM159 xenografts; L-NMMA 80 mg/kg daily, alone or with docetaxel 20 mg/kg, after 10 days",no differential effect
same,tumor growth,"SUM159 xenografts; L-NMMA daily dose increased to 200 mg/kg, alone or with docetaxel",efficiently blocked
same,tumor cell proliferation by immunohistochemistry (Ki67),"SUM159 xenografts; mouse, in vivo",Higher proliferating rate in vehicle and chemotherapy groups compared to L-NMMA and combination groups
same,"limiting dilution assay, tumors","SUM159 xenografts; week nine with 2×10^4 cells, vehicle 7/12",0/12
same,"limiting dilution assay, tumors","MDA-MB-231 xenografts [6]; 5 weeks with 5×10^4 cells, vehicle 12/12",1/12
same,tumor growth,"MDA-MB-231 xenografts [6]; L-NMMA 200 mg/kg daily, docetaxel 20 mg/kg days 0 and 21, 31 days",reduced tumor growth
same,"limiting dilution assay, tumors","MDA-MB-231 xenografts [6]; after six weeks, vehicle 6/12",3/12
same,primary MS of cells isolated from tumor tissue,MDA-MB-231 xenografts [6]; compared to vehicle and chemotherapy alone groups,less
same,proliferation rate by immunohistochemistry (Ki67),"MDA-MB-231 xenografts [6]; mouse, in vivo",lower proliferation rate
same,secondary MS of cells isolated from tumor tissue,"MDA-MB-231 xenografts [6]; mouse, in vivo",reduce secondary MS
same,L-NMMA plasma levels,"[7]; 200 mg/kg oral gavage, 0.5, 2, 12, 24 hrs",cleared rapidly
same,L-NMMA in tumor tissue,[7]; 24 hrs after completion of treatment,accumulates in the tumor tissue
same,conversion of L-arginine to L-citrulline and NO by iNOS,iNOS,inhibits the conversion of L-arginine to L-citrulline and NO by iNOS
same,duration of elevation in BP,after the last injection of L-NMMA,transient and disappeared 24 hrs after the last injection
same,mean systolic pressure,"oral L-NMMA 200 mg/kg, basal levels 120 mmHg",147 mm Hg
same,time to normalization of blood pressure upon ceasing the infusion,[8]; 12 mg/kg,less than 5 min
same,transient increase in systolic blood pressure,[8]; 12 mg/kg,up to 25 mm Hg
same,safety of bolus injections,"[8]; 3, 6, and 12 mg/kg prior to infusion of IL-2, n=3 per cohort",safe
same,blood pressure,[8]; 3 and 6 mg/kg,remained unchanged
same,clinically apparent side effects,[8]; 3 and 6 mg/kg,did not induce clinically apparent side effects
same,"hematologic, liver, or renal abnormalities","[8]; human, in vivo","not associated with any hematologic, liver, or renal abnormalities"
same,tolerability,[9]; in vivo,well tolerated with few AEs other than transient (minutes) reversible hypertension
same,mortality,[9]; myocardial infarction complicated by refractory cardiogenic shock,no effect on mortality
